Biological target: mPDF (Mycobacterium tuberculosis peptide deformylase) (Mycobacterium tuberculosis, UniProt P9WIJ3)
Conditions: 500 mM, pre-incubation up to 2 h at 30° C., 70 ng protein/reaction
Protocol: The ability of mPDF to deformylate methionine was assessed in a spectrophotometric assay following the method described by Groche et al (Groche et al., Biochem. Biophys. Res. Commun. 246 342-346 1998) with slight modification. The assay was carried out in 50 μl reaction volume mPDF protein (usually 70 ng) in 1× assay buffer (100 mM phosphate buffer, pH 7.4 containing 100 μg/ml catalase) was incubated with the substrate (0 to 80 mM of N-formyl-Met-Ala, Sigma, USA) at 30° C. for 30 min. The reaction was terminated by addition of 50 μl of 4% HClO4 and further incubated (37° C. for 2 h) with TNBSA reagent (0.01% in 0.1M NaHCO3 buffer, pH 8.4). Following addition of 10% SDS (250 μl) and 1N HCl (125 μl), the highly chromogenic derivative generated due to reaction of primary amine with TNBSA was measured at 335 nm (Hermanson G, Bioconjugate techniques, Academic press, San Diego, Calif., 1996, pp, 112-113). The values obtained were corrected by subtracting the blank (all ingredients except mPDF enzyme) readings. Standard curves were prepared with known amounts (0-42.8 nmoles) of methionine.

mPDF (Mycobacterium tuberculosis peptide deformylase), sequence (P9WIJ3 whole entry): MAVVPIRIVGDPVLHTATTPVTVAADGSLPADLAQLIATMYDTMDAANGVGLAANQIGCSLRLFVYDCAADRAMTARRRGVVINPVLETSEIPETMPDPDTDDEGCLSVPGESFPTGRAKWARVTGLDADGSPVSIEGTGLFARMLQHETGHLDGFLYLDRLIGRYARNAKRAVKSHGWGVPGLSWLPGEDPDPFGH

OO [H2O2, hydrogen peroxide]
effect on the deformylating ability of mPDF compared to the untreated control: did not show any significant effect

— patent publication US8907076B2, “Mycobacterial peptide deformylase” (Council of Scientific and Industrial Research, priority 2006, dated 2014)
